This note sets out measurements from patent publication US6333311A, “Useful properties of human lactoferrin and variants thereof” (Pharming, priority 1998, dated 2001).

One test addresses human transferrin (hTF) (Homo sapiens, UniProt P02787). The test can be described thus: Competitive inhibition of hLF binding to solid-phase lipid A, competitor hTF. To be noted: hTF as competitor of 12.5 nM biotinylated hLF binding to immobilized lipid A.
Test [1] has as its target T1, human lactoferrin, natural hLF (purified from human milk, 3.5% saturated with iron) (Homo sapiens, UniProt P02788).
T1 construct: Human LF was purified from fresh human milk by cation-exchange chromatography; from tissue; host or cells: fresh human milk
Description: Competitive inhibition of hLF binding to solid-phase lipid A, competitor natural hLF. To be noted: concentration of unlabelled natural hLF giving 50% inhibition of the response of 12.5 nM biotinylated hLF on immobilized lipid A; mean ± SD of at least 4 experiments.

In test [2] the target is T2, human lactoferrin, iron-saturated hLF (Homo sapiens, UniProt P02788).
T2 construct: Human LF was purified from fresh human milk by cation-exchange chromatography; from tissue; host or cells: fresh human milk
T2 sequence (P02788 with tags, fused parts or gaps limits assumed): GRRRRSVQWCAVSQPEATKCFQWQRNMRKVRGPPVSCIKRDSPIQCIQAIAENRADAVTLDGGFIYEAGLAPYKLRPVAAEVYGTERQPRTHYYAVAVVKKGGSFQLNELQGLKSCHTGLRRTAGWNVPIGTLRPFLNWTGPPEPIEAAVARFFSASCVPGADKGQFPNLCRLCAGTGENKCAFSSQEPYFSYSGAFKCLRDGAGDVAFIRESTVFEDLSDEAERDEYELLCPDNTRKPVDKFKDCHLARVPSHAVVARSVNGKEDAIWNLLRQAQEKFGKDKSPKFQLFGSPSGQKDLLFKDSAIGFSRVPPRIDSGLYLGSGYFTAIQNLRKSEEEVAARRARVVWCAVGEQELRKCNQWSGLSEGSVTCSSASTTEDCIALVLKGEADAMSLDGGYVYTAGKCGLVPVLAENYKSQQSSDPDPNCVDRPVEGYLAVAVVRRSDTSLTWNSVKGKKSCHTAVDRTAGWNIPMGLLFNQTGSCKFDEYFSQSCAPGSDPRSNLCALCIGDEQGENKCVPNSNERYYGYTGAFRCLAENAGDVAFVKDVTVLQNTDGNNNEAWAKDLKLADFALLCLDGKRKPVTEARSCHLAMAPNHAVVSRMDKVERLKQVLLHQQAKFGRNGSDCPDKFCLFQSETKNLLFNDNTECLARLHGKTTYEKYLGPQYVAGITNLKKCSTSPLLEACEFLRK
Description: Competitive inhibition of hLF binding to solid-phase lipid A, competitor iron-saturated hLF. Particulars: concentration of unlabelled iron-saturated hLF giving 50% inhibition of the response of 12.5 nM biotinylated hLF on immobilized lipid A; mean ± SD of at least 4 experiments.

T1 sequence (P02788 with tags, fused parts or gaps limits assumed): as above
human transferrin (hTF), sequence (P02787 20-698): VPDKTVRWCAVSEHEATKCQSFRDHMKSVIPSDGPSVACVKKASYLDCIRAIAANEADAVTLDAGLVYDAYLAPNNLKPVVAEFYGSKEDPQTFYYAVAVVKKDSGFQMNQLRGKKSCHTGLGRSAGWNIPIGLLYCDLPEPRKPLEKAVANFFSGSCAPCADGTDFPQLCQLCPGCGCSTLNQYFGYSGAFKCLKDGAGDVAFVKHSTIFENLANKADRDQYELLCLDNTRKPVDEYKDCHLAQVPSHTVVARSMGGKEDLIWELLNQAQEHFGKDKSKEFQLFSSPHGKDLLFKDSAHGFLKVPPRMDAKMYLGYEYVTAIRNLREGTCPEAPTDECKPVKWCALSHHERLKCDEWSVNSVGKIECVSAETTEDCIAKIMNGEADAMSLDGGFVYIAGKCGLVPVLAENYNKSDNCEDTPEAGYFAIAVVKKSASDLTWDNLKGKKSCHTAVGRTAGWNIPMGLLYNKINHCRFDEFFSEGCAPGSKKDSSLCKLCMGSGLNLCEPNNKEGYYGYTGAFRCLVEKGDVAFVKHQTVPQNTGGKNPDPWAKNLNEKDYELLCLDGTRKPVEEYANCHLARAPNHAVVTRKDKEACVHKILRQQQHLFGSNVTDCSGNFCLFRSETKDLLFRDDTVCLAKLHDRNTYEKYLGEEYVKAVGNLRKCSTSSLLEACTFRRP

Lipid A: the “IC50 Competitor, hTF” value at human transferrin (hTF) was “no competition”. Further, the results for the IC50 in test [1] and in test [2] were 1.7 ± 0.5 nM and 1.3 ± 0.4 nM, respectively.
